Measurements as given in the NIST ThermoML archive (doi:10.1016/j.fluid.2014.10.015).
± gives the expanded uncertainty stated by the source.

Conditions: for mass density / viscosity: Liquid; for mass density: Vibrating tube method; for surface tension liquid-gas: Pendant drop shape; for viscosity: Concentric cylinders viscometry

CC(=O)[O-].CCCCn1cc[n+](C)c1 [1-butyl-3-methylimidazolium acetate]
Conditions | mass density [kg/m3] | viscosity [mPa·s]
313.16 K, 109981 kPa | 1083.53 ± 6.7 | –
313.17 K, 5238 kPa | 1045.49 ± 5.9 | –
313.18 K, 1226 kPa | 1043.82 ± 5.9 | –
333.13 K, 101.33 kPa | 1031.21 ± 5.8 | –
333.14 K, 9567 kPa | 1035.37 ± 5.8 | –
333.15 K, 101 kPa | 1031.21 ± 5.8 | –
333.15 K, 101.33 kPa | – | 53.5 ± 1.7
333.15 K, 628 kPa | 1031.45 ± 5.8 | –
333.15 K, 4971 kPa | 1033.37 ± 5.8 | –
333.15 K, 20116 kPa | 1039.9 ± 5.9 | –
333.15 K, 29979 kPa | 1044.01 ± 6 | –
333.15 K, 49981 kPa | 1052.04 ± 6.1 | –
333.15 K, 59681 kPa | 1055.77 ± 6.2 | –
333.15 K, 70024 kPa | 1059.64 ± 6.2 | –
333.15 K, 79610 kPa | 1063.12 ± 6.3 | –
333.16 K, 39561 kPa | 1047.91 ± 6 | –
333.16 K, 89976 kPa | 1066.77 ± 6.4 | –
333.17 K, 99080 kPa | 1069.88 ± 6.5 | –
333.17 K, 109991 kPa | 1073.48 ± 6.5 | –
333.17 K, 120185 kPa | 1076.74 ± 6.6 | –
333.17 K, 129974 kPa | 1079.75 ± 6.7 | –
333.17 K, 139981 kPa | 1082.73 ± 6.8 | –
343.16 K, 101.33 kPa | 1025.2 ± 5.7 | –
353.12 K, 1410 kPa | 1019.9 ± 5.6 | –
353.12 K, 139714 kPa | 1072.82 ± 6.6 | –
353.13 K, 120068 kPa | 1066.76 ± 6.5 | –
353.13 K, 130015 kPa | 1069.89 ± 6.5 | –
353.14 K, 4959 kPa | 1021.56 ± 5.6 | –
353.14 K, 99015 kPa | 1059.73 ± 6.3 | –
353.14 K, 109983 kPa | 1063.46 ± 6.4 | –
353.15 K, 101 kPa | 1019.28 ± 5.6 | –
353.15 K, 101.33 kPa | 1019.28 ± 5.6 | 24.4 ± 0.8
353.15 K, 60022 kPa | 1045.25 ± 6 | –
353.15 K, 70021 kPa | 1049.15 ± 6.1 | –
353.15 K, 80038 kPa | 1052.92 ± 6.2 | –
353.15 K, 90002 kPa | 1056.56 ± 6.2 | –
353.16 K, 9951 kPa | 1023.86 ± 5.7 | –
353.16 K, 49992 kPa | 1041.22 ± 5.9 | –
353.17 K, 20183 kPa | 1028.49 ± 5.7 | –
353.17 K, 29998 kPa | 1032.8 ± 5.8 | –
353.18 K, 39534 kPa | 1036.88 ± 5.9 | –
373.14 K, 19875 kPa | 1017.03 ± 5.6 | –
373.14 K, 139805 kPa | 1063.23 ± 6.5 | –
373.15 K, 101 kPa | 1007.58 ± 5.5 | –
373.15 K, 101.33 kPa | – | 13.8 ± 0.4
373.15 K, 9977 kPa | 1012.37 ± 5.5 | –
373.15 K, 99180 kPa | 1049.72 ± 6.2 | –
373.15 K, 110012 kPa | 1053.53 ± 6.2 | –
373.15 K, 120856 kPa | 1057.2 ± 6.3 | –
373.15 K, 129989 kPa | 1060.16 ± 6.4 | –
373.16 K, 4871 kPa | 1009.91 ± 5.5 | –
373.16 K, 29995 kPa | 1021.67 ± 5.7 | –
373.16 K, 49968 kPa | 1030.42 ± 5.8 | –
373.16 K, 59224 kPa | 1034.29 ± 5.9 | –
373.16 K, 90022 kPa | 1046.37 ± 6.1 | –
373.17 K, 2297 kPa | 1008.66 ± 5.5 | –
373.17 K, 39711 kPa | 1025.99 ± 5.7 | –
373.17 K, 69994 kPa | 1038.66 ± 5.9 | –
373.18 K, 79589 kPa | 1042.42 ± 6 | –
393.13 K, 5180 kPa | 998.69 ± 5.4 | –
393.14 K, 60153 kPa | 1024.29 ± 5.7 | –
393.14 K, 69980 kPa | 1028.4 ± 5.8 | –
393.14 K, 80125 kPa | 1032.49 ± 5.9 | –
393.14 K, 120002 kPa | 1047.09 ± 6.2 | –
393.15 K, 101 kPa | 996.11 ± 5.4 | –
393.15 K, 3086 kPa | 997.63 ± 5.4 | –
393.15 K, 10081 kPa | 1001.16 ± 5.4 | –
393.15 K, 20117 kPa | 1006.09 ± 5.5 | –
393.15 K, 30011 kPa | 1010.81 ± 5.5 | –
393.15 K, 40130 kPa | 1015.49 ± 5.6 | –
393.15 K, 49985 kPa | 1019.89 ± 5.7 | –
393.15 K, 90011 kPa | 1036.33 ± 5.9 | –
393.15 K, 109214 kPa | 1043.37 ± 6.1 | –
393.15 K, 130005 kPa | 1050.39 ± 6.2 | –
393.16 K, 99789 kPa | 1039.98 ± 6 | –
393.16 K, 139958 kPa | 1053.52 ± 6.3 | –
413.12 K, 2006 kPa | 985.88 ± 5.2 | –
413.12 K, 5092 kPa | 987.51 ± 5.3 | –
413.13 K, 20186 kPa | 995.28 ± 5.3 | –
413.14 K, 30014 kPa | 1000.15 ± 5.4 | –
413.14 K, 40204 kPa | 1005.02 ± 5.5 | –
413.14 K, 49979 kPa | 1009.54 ± 5.5 | –
413.14 K, 60179 kPa | 1014.09 ± 5.6 | –
413.14 K, 70022 kPa | 1018.33 ± 5.7 | –
413.14 K, 99791 kPa | 1030.18 ± 5.9 | –
413.14 K, 119957 kPa | 1037.4 ± 6 | –
413.14 K, 139956 kPa | 1043.92 ± 6.1 | –
413.15 K, 101 kPa | 984.86 ± 5.2 | –
413.15 K, 79800 kPa | 1022.54 ± 5.7 | –
413.15 K, 90200 kPa | 1026.45 ± 5.8 | –
413.15 K, 109956 kPa | 1033.9 ± 5.9 | –
413.15 K, 129954 kPa | 1040.74 ± 6.1 | –
413.16 K, 10624 kPa | 990.4 ± 5.3 | –

Conditions | surface tension liquid-gas [mN/m]
313.2 K | 36.88 ± 1.4
318.2 K | 36.63 ± 1.4
323.2 K | 36.42 ± 1.4
328.2 K | 36.2 ± 1.4
